Some results are limits rather than exact numbers.

In series [1] the test system is membrane bound VEGF (VEGF189 and VEGF206). Briefly: Western blot of membrane bound VEGF isoforms. Format: cell-based, human. The method, then:
Cells were treated with test compounds for the indicated times as shown in the Results section. Whole-cell extracts were obtained by lysing cells in M-PER lysis buffer (Pierce, Rockford, IL) containing 150 mM NaCl, 2 mM EDTA and 1x Halt protease inhibitors (Pierce). Samples were resolved on a Tris-glycine Criterion gel (Bio-Rad) and transferred onto a 0.45 μm nitrocellulose membrane. The membranes were then immunoblotted with specific antibodies as shown in the Results section: antibody (C1) specific for VEGF was purchased from Santa Cruz Biotechnologies (used at 1:200 dilution); and antibody specific for human β-actin was purchased from Abcam (Cambridge, MA) (1:10000 dilution). Immunodetection was done using the corresponding secondary antibodies conjugated with infrared dyes or horseradish peroxidase. The expression levels of proteins were quantified with Odyssey (LI-COR) or using enhanced chemiluminescence (Pierce).
The effect of PTC-858 on the levels of the soluble and membrane bound VEGF isoforms was characterized. The levels of the soluble VEGF isoforms (VEGF121 and VEGF165) were assessed from conditioned medium as described above. The effect of PTC-858 on the production of the high molecular weight, membrane bound isoforms (VEGF189 and VEGF206), was determined by Western blot analysis using a VEGF specific antibody. β-actin levels were used as an internal loading control. […]
On the technique in general: A western blot detects proteins with antibodies after separation by electrophoresis.

Series [2] relates to EPO. The experiment in a line: EPO ELISA in HepB3 cells under hypoxia. Format: cell-based. Particulars: Homo sapiens; HepB3 cells under hypoxia (1% oxygen), 48 hours. The method, then: (§1) Cells were treated with vehicle control (0.5% DMSO) or compounds at the indicated concentration for 48 hours, and specific proteins in conditioned medium were quantified using commercially available ELISA kits (R&D Systems) according to the manufacturer’s recommendations. VEGF was quantified in HeLa cells under hypoxia (1% oxygen); Tumor necrosis factor alpha (TNFα) was quantified in CEM cells stimulated with 1 μg/mL interleukin-1 beta (Sigma); erythropoietin (EPO) was quantified in HepB3 cells under hypoxic conditions (1% oxygen); and granulocyte colony-stimulating factor (G-CSF), basic fibroblast growth factor (FGF-2) and insulin-like growth factor 1 (IGF-1) were quantified without induction in HT1080 cells, HeLa cells and HepG2 cells, respectively.
(§2) Several target proteins were chosen as selectivity counter-screens, including TNF-alpha, FGF-2, G-CSF, IGF-1, and EPO. Similar to that of VEGF, the expression levels of these proteins are post-transcriptionally regulated, either through a 5’-UTR IRES, 3’-UTR AU-rich elements (AREs), or both.
(ELISA stands for enzyme-linked immunosorbent assay.)

Series [3] in a line: Cytotoxicity, CellTiter-Glo, PBMC. In kind it is cell-based. Conditions: human, peripheral blood mononuclear cells (PBMC). The method, then: (§3) The cytotoxicity of compounds was determined in peripheral blood mononuclear cells (PBMCs) and primary human foreskin fibroblasts, both purchased frozen from AllCells, Inc, CA. Cells were incubated with test compound at various concentrations in triplicate for a period of 3 days in 96-well plates. The cytotoxicity or inhibition of cell proliferation was determined using a standard CellTiter-Glo® Luminescent Cell Viability Assay (Promega, Madison, WI) that measures total cellular adenosine triphosphate (ATP) concentration as a function of cell viability. In addition, cytotoxicity assays were also performed in HeLa cells in parallel with VEGF ELISA to ensure that the inhibition of VEGF production in HeLa cells was not due to cytotoxicity.

Series [4] deals with TNFα. The experiment in a line: TNFα ELISA in CEM cells with IL-1 induction. Format: cell-based. Particulars: Homo sapiens, CCRF-CEM; CEM cells (T lymphoblasts) with 1 μg/mL IL-1 induction, 48 hours; read-out: ELISA EC50, TNFa. The method, then:
as §1, §2

For series [5], the system named is hFGF-2. Briefly: HT1080 xenograft pharmacodynamic model, intratumor hFGF-2. In kind it is in vivo, mouse. Conditions: twice per day for 7 days. The method, then: Log phase growing tumor cells (5–10 x 10^6 cells/mouse, depending on the cell line) were implanted subcutaneously in athymic nude mice. When the average tumor size reached the indicated size, mice were randomly divided into groups and administered vehicle (5% DMSO/ 95% PEG-300) or test compounds by oral gavage. Tumor volumes were measured twice per week using digital calipers and body weights once per week. Tumor volume was determined according to the formula: L x (W)^2/2, where L is the longest dimension and W is the shortest dimension.
At the end of experiments, the tumors were excised from mice and homogenized on ice using a Powergen homogenizer fitted with Omni-Tip disposable/reusable probes (both from Fisher Scientific) in Tris-HCl buffer containing a cocktail of proteinase inhibitors. Intra-tumor human VEGF levels, as well as levels of other growth factors or proteins, were subsequently measured using commercially available ELISA kits (R&D Systems). Protein concentrations of the homogenates were determined using the Bradford protein assay (Bio-Rad) and intratumor growth factor levels were normalized to the total protein concentration.
Among the VEGF UTR-selective compounds identified, PTC-858 is a potent hit with adequate pharmaceutical properties (data not shown). […]

Series [6] can be described thus: Cytotoxicity, CellTiter-Glo, HeLa cells. In kind it is cell-based. Conditions: human. The method, then:
as §3
The IC50 values for compounds that inhibited VEGF production were determined next. A seven-point dose-response analysis was performed for each of the 137 compounds. In parallel, a dose-response cytotoxicity assay was performed to determine the CC50 (the concentration resulting in 50% cellular growth inhibition or cytotoxicity) under the same conditions as VEGF ELISA to determine whether hypoxia-induced VEGF inhibition was due to cytotoxicity.

Series [7] in a line: Microsome metabolism - dog. In kind it is in vitro ADME.
Series [8] can be described thus: Microsome metabolism - murine. In kind it is in vitro ADME, mouse. The method, then: Pharmacological characterization of PTC-510. Pharmacological assays were performed to characterize PTC-510, including metabolic stability in human, primate mouse and rat liver microsomes; absorption in Caco-2 cells; in vitro effect on hERG ion channel; pharmacokinetics; and acute toxicity in the rat.

Consider `Brc1ccc2[nH]c3c(c2c1)CCCC3n1cccc1` (stereo not shown) [PTC-858, 6-bromo-1-(1H-pyrrol-1-yl)-2,3,4,9-tetrahydro-1H-carbazole], for which the “effect on level of membrane bound VEGF (Western blot)” value in series [1] (HeLa cells (text b57), β-actin loading control) was “reduced the level of membrane bound VEGF in HeLa cells in a dose-dependent fashion”. Moreover, the EC50 (commonly the concentration needed to bring the measured effect to its halfway point) is 8.1 µM in series [2] and more than 30 µM in series [4]. In addition, the CC50 (in general, the concentration giving 50% cytotoxicity) at 72 hours is more than 30 µM in series [3] (72 hours, CellTiter-Glo) and 1.7 µM in series [6] (72 hours, CellTiter-Glo). Also, the “changes in FGF-2 in vivo” value in series [5] (200 mg/kg orally) is recorded as “not significant”. For the same compound, the “intratumor hFGF-2” value in series [5] (200 mg/kg, oral, mean +/- SD, n = 10) is on record as 3126.8 ± 1073.7 pg/mg total tumor proteins. Besides, the selectivity ratio in series [6] (CC50 vs VEGF ELISA IC50, read-out: selective index (CC50/IC50)) is more than 200.

Take `COc1ccc(C2c3[nH]c4ccc(Br)cc4c3CC3C(=O)N(C4CCCCC4)C(=S)N32)cc1.O=C(O)C(F)(F)F` (stereo not shown) [PTC-510, 9-bromo-2-cyclohexyl-5-(4-methoxyphenyl)-3-thioxo-2,3,5,6,11,11a-hexahydro-1H-imidazo[1’,5’:1,6]pyrido[3,4-b]indol-1-one trifluoroacetate]: the “effect on production of membrane bound VEGF189/206 (Western blot)” value in series [1] (Fig 4c) is given as “inhibits the production of the membrane bound VEGF189/206”. For the same compound, in series [3] (read-out: PBMC cytoxtoxicity CC50), the CC50 at 3 days is more than 30 µM. For the same compound, the “Microsome metabolism - dog, % loss @ 1 h” value in series [7] worked out at 0%. For the same compound, the “Microsome metabolism - murine, % loss @ 1 h” value in series [8] is 0%. It took 0.2 µM to reach half-maximal cytotoxicity in series [6] (48 hr) (CC50 at 48 hr).

Values taken from PMC5161367, “Discovery of Novel Small Molecule Inhibitors of VEGF Expression in Tumor Cells Using a Cell-Based High Throughput Screening Platform” (PLoS ONE, 2016).
